Laboratory results taken from ChEMBL document CHEMBL2057120, “Chromatin structure determines accessibility of a hairpin polyamide-chlorambucil conjugate at histone H4 genes in pancreatic cancer cells” (Bioorg Med Chem Lett, 2012).
Activity calls are given as the source filed them. The calls are words filed in the database; no cut-off is given here.

Tests used:
HEK293 [1] = test: Downregulation of histone H4E mRNA expression in human HEK293 cells at 250 uM after 72 hrs by quantitative RT-PCR analysis; assay type: ADME, cell-based; conditions: hek293, 72 h
HEK293 [2] = test: Downregulation of histone H4A mRNA expression in human HEK293 cells at 250 uM after 72 hrs by quantitative RT-PCR analysis; assay type: ADME, cell-based; conditions: hek293, 72 h
MIA PaCa-2 [3] = test: Downregulation of histone H4L mRNA expression in human MIAPaCa2 cells at 50 uM after 72 hrs by quantitative RT-PCR analysis; assay type: functional, cell-based
MIA PaCa-2 [4] = test: Downregulation of histone HJK mRNA expression in human MIAPaCa2 cells at 50 uM after 72 hrs by quantitative RT-PCR analysis; assay type: functional, cell-based
MIA PaCa-2 [5] = test: Downregulation of histone H4C mRNA expression in human MIAPaCa2 cells at 50 uM after 72 hrs by quantitative RT-PCR analysis; assay type: functional, cell-based
HEK293 [6] = test: Downregulation of histone 4H4 mRNA expression in human HEK293 cells at 250 uM after 72 hrs by quantitative RT-PCR analysis; assay type: ADME, cell-based; conditions: hek293, 72 h
MIA PaCa-2 [7] = test: Downregulation of histone H4E mRNA expression in human MIAPaCa2 cells at 50 uM after 72 hrs by quantitative RT-PCR analysis; assay type: functional, cell-based
MIA PaCa-2 [8] = test: Downregulation of histone H4A mRNA expression in human MIAPaCa2 cells at 50 uM after 72 hrs by quantitative RT-PCR analysis; assay type: functional, cell-based
MIA PaCa-2 [9] = test: Downregulation of histone 4H4 mRNA expression in human MIAPaCa2 cells at 50 uM after 72 hrs by quantitative RT-PCR analysis; assay type: functional, cell-based
HEK293 [10] = test: Downregulation of histone HJK mRNA expression in human HEK293 cells at 250 uM after 72 hrs by quantitative RT-PCR analysis; assay type: ADME, cell-based; conditions: hek293, 72 h
HEK293 [11] = test: Downregulation of histone H4H mRNA expression in human HEK293 cells at 250 uM after 72 hrs by quantitative RT-PCR analysis; assay type: ADME, cell-based; conditions: hek293, 72 h
MIA PaCa-2 [12] = test: Downregulation of histone H4D mRNA expression in human MIAPaCa2 cells at 50 uM after 72 hrs by quantitative RT-PCR analysis; assay type: functional, cell-based
HEK293 [13] = test: Downregulation of histone H4L mRNA expression in human HEK293 cells at 250 uM after 72 hrs by quantitative RT-PCR analysis; assay type: ADME, cell-based; conditions: hek293, 72 h
[14] = Growth inhibition of human HEK293 cells after 6 days by MTS assay; assay type: cell-based
MIA PaCa-2 [15] = test: Downregulation of histone H4AB mRNA expression in human MIAPaCa2 cells at 50 uM after 72 hrs by quantitative RT-PCR analysis; assay type: functional, cell-based
MIA PaCa-2 [16] = test: Downregulation of histone H4H mRNA expression in human MIAPaCa2 cells at 50 uM after 72 hrs by quantitative RT-PCR analysis; assay type: functional, cell-based
MIA PaCa-2 [17] = test: Growth inhibition of human MIAPaCa2 cells after 6 days by MTS assay; assay type: functional; conditions: MIA PaCa-2, 144 h
HEK293 [18] = test: Downregulation of histone H4AB mRNA expression in human HEK293 cells at 250 uM after 72 hrs by quantitative RT-PCR analysis; assay type: ADME, cell-based; conditions: hek293, 72 h
MIA PaCa-2 [19] = test: Downregulation of histone H4B mRNA expression in human MIAPaCa2 cells at 50 uM after 72 hrs by quantitative RT-PCR analysis; assay type: functional, cell-based
HEK293 [20] = test: Downregulation of histone H4B mRNA expression in human HEK293 cells at 250 uM after 72 hrs by quantitative RT-PCR analysis; assay type: ADME, cell-based; conditions: hek293, 72 h
HEK293 [21] = test: Downregulation of histone H4D mRNA expression in human HEK293 cells at 250 uM after 72 hrs by quantitative RT-PCR analysis; assay type: ADME, cell-based; conditions: hek293, 72 h
HEK293 [22] = test: Downregulation of histone H4C mRNA expression in human HEK293 cells at 250 uM after 72 hrs by quantitative RT-PCR analysis; assay type: ADME, cell-based; conditions: hek293, 72 h
HEK293 [23] = test: Selectivity ratio of GI50 for human HEK293 cells to GI50 for human MIAPaCa2 cells
[24] = Drug uptake in human HEK293 cell nucleus using BODIPY labeled compound at 500 uM after 16 hrs by […] microscopic analysis; assay type: ADME, cell-based; conditions: hek293, 16 h

CN(C)CCCNC(=O)CCNC(=O)c1cc(NC(=O)c2cc(NC(=O)c3cc(NC(=O)c4cc(NC(=O)[C@@H](CCNC(=O)CCCc5ccc(N(CCCl)CCCl)cc5)NC(=O)c5nc(NC(=O)CCNC(=O)c6nc(NC(=O)c7nccn7C)cn6C)cn5C)cn4C)cn3C)cn2C)cn1C
Activity (HEK293 [1]): Non-toxic | Activity (HEK293 [2]): Non-toxic | Activity (MIA PaCa-2 [3]): Active | Activity (MIA PaCa-2 [4]): Active | Activity (MIA PaCa-2 [5]): Active | Activity (HEK293 [6]): Non-toxic | Activity (MIA PaCa-2 [7]): Active | Activity (MIA PaCa-2 [8]): Active | Activity (MIA PaCa-2 [9]): Active | Activity (HEK293 [10]): Non-toxic | Activity (HEK293 [11]): Non-toxic | Activity (MIA PaCa-2 [12]): Active | Activity (HEK293 [13]): Non-toxic | GI50 at 144 h [14]: 400 nM | Activity (MIA PaCa-2 [15]): Active | Activity (MIA PaCa-2 [16]): Active | GI50 (MIA PaCa-2 [17]): 16 nM | Activity (HEK293 [18]): Non-toxic | Activity (MIA PaCa-2 [19]): Active | Activity (HEK293 [20]): Non-toxic | Activity (HEK293 [21]): Non-toxic | Activity (HEK293 [22]): Non-toxic | RatioGI50 (HEK293 [23]): 25 | Drug uptake [24]: Active
